How the values were obtained:
S. aureus strains [1] = assay: Stimulation of bacteriophage amplification by fatty acid compounds, all hosts tested; conditions: for effect on bacteriophage amplification: fatty acid compound added to growth medium
[2] = system: clinical MRSA (methicillin-resistant S. aureus) isolates; assay: Phage amplification in MRSA strains with cefoxitin and/or lauric acid (FIG. 3)
Excerpt: In FIG. 3, each symbol represents a clinical MRSA (methicillin-resistant S. aureus) isolate able to grow in the presence of β-lactam antibiotics such as cefoxitin. The first column 62 (circles) indicates amplification by MRSA strains with no cefoxitin and no lauric acid. The second column 64 (squares) indicates amplification with added cefoxitin. […] The third column 66 (diamonds) indicates amplification with added lauric acid. The fourth column 70 (x's) indicate amplification with added lauric acid and cefoxitin.

[3] = system: clinical isolates of S. aureus (poorest hosts for bacteriophage amplification); assay: Bacteriophage amplification (MP112 and MP115) on poor or restrictive S. aureus hosts with lauric acid (FIG. 1)
Excerpt: The 28 strains in this study were chosen from a collection of 202 clinical isolates as the poorest hosts for bacteriophage amplification.

[4] = system: clinical isolates of S. aureus (good bacteriophage hosts); assay: Bacteriophage amplification on permissive (good) S. aureus hosts with lauric acid (FIG. 2)
[5] = system: panel of 32 S. aureus strains; assay: Bacteriophage sensitivity versus sodium pyruvate concentration (FIG. 4)
S. aureus strains [6] = assay: Bacteriophage mean amplification versus sodium pyruvate concentration (FIG. 5); assay type: cell-based, Staphylococcus aureus

With `CCCCCC(=O)O` [caproic acid] as the compound, how does the “effect on bacteriophage amplification” value (S. aureus strains [1]) read?
The value was “positively stimulate bacteriophage amplification”.

For `CCCCCCCCCC(=O)O` [capric acid], which “effect on bacteriophage amplification” value (S. aureus strains [1]) is on record?
The value was “positively stimulate bacteriophage amplification”.

Which “effect on bacteriophage amplification” value (S. aureus strains [1]) does the source give for `CCCCCCCCCCCCCC(=O)O` [myristic acid] here?
The value was “positively stimulate bacteriophage amplification”.

With `CCCCCCCCCCCC(=O)O` [lauric acid] as the compound, how does the “effect on phage amplification in MRSA strains” value ([2]; added lauric acid and cefoxitin) read?
The value was “relieves suppression of phage amplification by cefoxitin”.

What about the “S. aureus strains tested showing stimulation of bacteriophage amplification” value (S. aureus strains [1]; in response to lauric acid, strains tested to date) of the same compound?
The value was “more than 80%”.

And the “average level of amplification (output pfu/ml divided by input pfu/ml)” value ([3]; 30 μg/ml lauric acid, 28 poor-host strains, four hours at 35°, three-fold with no lauric acid)?
Its value is 45 fold.

What about the “effect on amplification on poor or restrictive S. aureus hosts” value ([3]; FIG. 1 legend) of the same compound?
Its value is “improves amplification”.

And the “effect on bacteriophage amplification on permissive S. aureus hosts” value ([4]; FIG. 2 legend)?
The value was “increases bacteriophage amplification”.

What about the average amplification ([4]; with the addition of lauric acid (5-30 μg/ml), good hosts, 69-fold without) of the same compound?
Its average amplification is “over 100 fold”.

`CC(=O)C(=O)[O-].[Na+]` [sodium pyruvate] was tested. Which “effect on phage sensitivity” value ([5]; 10 mmol/L to 50 mmol/L sodium pyruvate, wide variety of S. aureus strains) did it give?
The value was “significantly increase phage sensitivity”.

What about the phage sensitivity ([5]; 15 mmol/L to 31 mmol/L sodium pyruvate) of the same compound?
The phage sensitivity was “above 90%”.

What about the “increase of sensitivity over sensitivities without sodium pyruvate” value ([5]; 27 mmol/L sodium pyruvate) of the same compound?
The value was “about 15%”.

What about the “effect on mean amplification of the bacteriophage” value (S. aureus strains [6]; about 10 mmol/L to 60 mmol/L sodium pyruvate) of the same compound?
Its value is “increased significantly”.

And the “mean amplification of the bacteriophage” value (S. aureus strains [6]; about 30 mmol/L sodium pyruvate, about 92 without)?
The value was 150.

Which “effect on bacteriophage amplification” value (S. aureus strains [1]) does the source give for `CCCCC/C=C\C/C=C\CCCCCCCC(=O)O` [linoleic acid] here?
Its value is “positively stimulate bacteriophage amplification”.

Which “effect on bacteriophage amplification” value (S. aureus strains [1]) does the source give for `CCCCCCCC(=O)O` [caprylic acid] here?
The value was “positively stimulate bacteriophage amplification”.

For `CCCCCCCCCCCC(=O)OCC(O)CO` (stereo not shown) [glycerol monolaurate], which “effect on bacteriophage amplification” value (S. aureus strains [1]) is on record?
The value was “positively stimulate bacteriophage amplification”.

For `CCCCCCCC/C=C\CCCCCCCC(=O)O` [oleic acid], which “effect on bacteriophage amplification” value (S. aureus strains [1]) is on record?
The value was “positively stimulate bacteriophage amplification”.

With `CO[C@@]1(NC(=O)Cc2cccs2)C(=O)N2C(C(=O)O)=C(COC(N)=O)CS[C@@H]21` [cefoxitin, reference compound] as the compound, how does the “effect on phage amplification in MRSA strains” value ([2]; added cefoxitin, no lauric acid) read?
Its value is “suppression of phage amplification”.

— patent US8455186B2, “Method of detection of microorganisms with enhanced bacteriophage amplification” (priority 2007, dated 2013)
